How the values were obtained:
[1] = system: T1, AsAChE-A; assay: LC-MS/MS quantification of choline, HILIC; type: biochemical, Atta sexdens; settings: free enzyme; 15 mM ammonium acetate, pH 5.0 as printed; 5 min
T1 construct: gene ace 2; native, soluble, from worker heads
Text: LC-MS/MS quantification of choline, HILIC on AsAChE-A

[2] = system: T1, AsAChE-A; assay: Ellman assay, […] nm, Lineweaver-Burk; type: biochemical, Atta sexdens; settings: free enzyme; Tris-HCl, optimal pH (9.5) and temperature (30 or 50 °C, which not told); iodide salt; partially purified native enzyme
[3] = biological target: T2, AsAChE-B (Atta sexdens, UniProt A0A2R2V0F5); assay: on-flow LC-MS/MS of choline with immobilized enzyme capillary reactor; type: biochemical; settings: read-out: % inhibition at 0.1 mM
T2 construct: native, soluble, from worker heads

Structure (SMILES): CC(=O)OCC[N+](C)(C)C [ACh, acetylcholine]
- Km [1]: 40.7 ± 12.5 µM

Structure (SMILES): CC(=O)SCC[N+](C)(C)C [ATCh, acetylthiocholine]
- Km [2]: 39.1 ± 2.3 µM

Structure (SMILES): Nc1c2c(nc3ccccc13)CCCC2 [tacrine]
- inhibition at 100 µM [3]: 16%

Reference: article PMC6633970, “Acetylcholinesterases from Leaf-Cutting ant Atta sexdens: Purification, Characterization, and Capillary Reactors for On-Flow Assays” (Enzyme Research, 2019)
